Results from patent publication US10604555B2, “GIP derivatives and uses thereof” (priority 2018, dated 2020).
pEC50: −log10 of the molar value. *1 amine or outer side, *2 acyl side, *3 side chain or, on linkers, in order; H or OH if unused. Where no end group is shown, it is not given here. Side-chain parts run from the residue outwards. [ ]: non-standard residue; d: D form. The star is where a group is joined. C18 diacid = O=C(O)CCCCCCCCCCCCCCCCC(=O)*; γGlu = O=C(O)[C@H](CCC(=O)[*:2])N[*:1]; Nle = CCCC[C@H](N)C(=O)O; AEEA = NCCOCCOCC(=O)O; Aib = CC(C)(N)C(=O)O

Experiments:
Format in all cases: cell-based
Settings in all cases: 0.2% HSA
human GIP receptor = target: T1, human GIP receptor (Homo sapiens, UniProt P48546); test: In vitro potency (CRE luciferase; whole cells), BHK CRE luc2P hGIPR
T1 construct: expressed in transfected cells; host or cells: BHK (parent line BHKTS13), BHK CRE luc2P hGIPR clone #5
T1 sequence (P48546 22-466): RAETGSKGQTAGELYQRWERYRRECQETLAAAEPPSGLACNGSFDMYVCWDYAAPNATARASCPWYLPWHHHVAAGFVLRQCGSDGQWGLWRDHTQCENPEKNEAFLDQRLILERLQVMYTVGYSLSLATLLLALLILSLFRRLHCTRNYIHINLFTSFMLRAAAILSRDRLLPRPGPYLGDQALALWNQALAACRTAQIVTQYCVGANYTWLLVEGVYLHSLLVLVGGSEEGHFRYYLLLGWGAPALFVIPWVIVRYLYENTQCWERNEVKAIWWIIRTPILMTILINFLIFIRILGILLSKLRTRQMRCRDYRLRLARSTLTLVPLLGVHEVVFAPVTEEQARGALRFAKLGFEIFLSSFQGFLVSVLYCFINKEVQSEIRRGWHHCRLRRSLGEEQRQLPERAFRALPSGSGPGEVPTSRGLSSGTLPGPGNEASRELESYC
Procedure, shortened: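 BHK clones carrying a CRE luciferase element, each transfected with one human receptor, were seeded at 5000 cells/well overnight. Compounds were diluted in buffer with 1% ovalbumin and 0.1% Pluronic F-68, with or without human serum albumin. Luminescence was read after steadylite plus; non-linear log(agonist)-response fit, averaged over at least two replicates.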

human GLP-1 receptor = target: T2, human GLP-1 receptor (Homo sapiens, UniProt P43220); test: In vitro potency (CRE luciferase; whole cells), BHK CRE luc2P hGLP-1R
T2 construct: expressed in transfected cells; host or cells: BHK (parent line BHKTS13), BHK CRE luc2P hGLP-1R clone #6
Method: (§1) In Vitro Potency (CRE Luciferase; Whole Cells)
(§2) The in vitro potency is the measure of human GIP, GLP-1 or glucagon receptor activation, respectively, in a whole cell assay.
(§3) In vitro potency was determined by measuring the response of the human GIP, GLP-1 or glucagon receptor in a reporter gene assay in individual cell lines. […] When the respective receptor is activated it results in the production of cAMP, which in turn results in the luciferase protein being expressed. When assay incubation is completed the luciferase substrate (luciferin) is added and the enzyme converts luciferin to oxyluciferin to produce bioluminescence. The luminescence is measured as the readout for the assay.
(§4) The cells were derived from a clone containing the CRE luciferase element and were established by further transfection with the respective receptor to obtain the current clone.
(§5) The cells were cultured at 5% CO2 in Cell Culture Medium. They were aliquoted and stored in liquid nitrogen. The cells were kept in passage and were seeded out the day before each assay.
(§6) The Assay Buffer consisted of 1% ovalbumin and 0.1% Pluronic F-68 in Assay Medium with the addition of human serum albumin at twice the indicated concentrations.
(§7) 1) Cells were plated at 5000 cells/well and incubated overnight.
(§8) 2) Cells were washed three times in PBS.
(§9) 3) Assay Medium (50 μl aliquot) with or without serum albumin was added to each well in the assay plate.
(§10) 4) Stocks of the test compounds and reference compounds were diluted to a concentration of 0.2 μM in Assay Buffer. […] 8) The cells were washed three times with PBS plus some liquid in each well. 9) A 100 μl aliquot of steadylite plus reagent was added to each well of the assay plate (reagent was light sensitive). 10) Each assay plate was covered with aluminum foil to protect it from light and shaken for 30 min at room temperature. 11) Each assay plate was read in a microtiter plate reader. Calculations and Results
The data from the microtiter plate reader was transferred to GraphPad Prism software. The software performs a non-linear regression (log(agonist) vs response).
A minimum of two replicates was measured for each sample. The reported values are averages of the replicates.

human glucagon receptor = target: T3, human glucagon receptor (Homo sapiens, UniProt P47871); test: In vitro potency (CRE luciferase; whole cells), BHK CRE luc2P hGCGR
T3 construct: expressed in transfected cells; host or cells: BHK (parent line BHKTS13), BHK CRE luc2P hGCGR clone #18
Method: as §1, §2, §3, §4, §5, §6, §7, §8, §9, §10
The data from the microtiter plate reader was transferred to GraphPad Prism software. […]
A minimum of two replicates was measured for each sample. […]

T2 sequence (P43220 24-463): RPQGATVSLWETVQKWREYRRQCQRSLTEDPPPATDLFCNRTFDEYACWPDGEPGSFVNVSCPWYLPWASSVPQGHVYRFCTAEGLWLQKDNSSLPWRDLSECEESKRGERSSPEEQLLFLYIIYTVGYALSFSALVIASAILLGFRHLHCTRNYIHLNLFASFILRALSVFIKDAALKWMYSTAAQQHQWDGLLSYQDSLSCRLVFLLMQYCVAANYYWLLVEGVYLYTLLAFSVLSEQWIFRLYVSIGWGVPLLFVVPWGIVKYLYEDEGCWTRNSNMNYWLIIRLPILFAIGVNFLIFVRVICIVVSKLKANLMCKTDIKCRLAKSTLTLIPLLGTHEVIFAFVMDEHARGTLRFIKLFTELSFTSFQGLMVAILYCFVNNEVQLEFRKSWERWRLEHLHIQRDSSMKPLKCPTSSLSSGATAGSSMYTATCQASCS
T3 sequence (P47871 26-477): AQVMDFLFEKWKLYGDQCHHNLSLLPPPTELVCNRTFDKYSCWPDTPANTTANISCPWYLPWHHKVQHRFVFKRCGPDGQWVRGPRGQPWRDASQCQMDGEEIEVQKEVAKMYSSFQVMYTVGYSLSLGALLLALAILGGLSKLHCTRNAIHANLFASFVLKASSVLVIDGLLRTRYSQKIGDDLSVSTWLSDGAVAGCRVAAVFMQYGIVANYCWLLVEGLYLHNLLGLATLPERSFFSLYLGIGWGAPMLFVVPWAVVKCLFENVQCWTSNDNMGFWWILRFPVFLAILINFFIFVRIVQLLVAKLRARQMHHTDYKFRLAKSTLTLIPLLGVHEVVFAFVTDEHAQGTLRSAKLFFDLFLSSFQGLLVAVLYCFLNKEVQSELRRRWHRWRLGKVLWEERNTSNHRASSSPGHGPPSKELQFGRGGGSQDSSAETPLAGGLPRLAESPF

pEC50 (human GIP receptor)	pEC50 (human GLP-1 receptor)	pEC50 (human glucagon receptor)	Compound
11.39	< 7.00	< 7.00	CCCC[C@H](NC(=O)[C@H](C)NC(=O)[C@@H](NC(=O)[C@H](CO)NC(=O)[C@H](Cc1ccc(O)cc1)NC(=O)[C@H](CC(=O)O)NC(=O)[C@H](CO)NC(=O)[C@@H](NC(=O)[C@H](Cc1ccccc1)NC(=O)[C@@H](NC(=O)CNC(=O)[C@H](CCC(=O)O)NC(=O)C(C)(C)NC(=O)[C@@H](N)Cc1ccc(O)cc1)[C@@H](C)O)[C@@H](C)CC)[C@@H](C)CC)C(=O)N[C@@H](CC(=O)O)C(=O)N[C@@H](CCCCN)C(=O)N[C@H](C(=O)N[C@@H](CCCNC(=N)N)C(=O)N[C@@H](CCC(N)=O)C(=O)N[C@@H](CCC(N)=O)C(=O)N[C@@H](CC(=O)O)C(=O)N[C@@H](Cc1ccccc1)C(=O)N[C@H](C(=O)N[C@@H](CCCCNC(=O)COCCOCCNC(=O)COCCOCCNC(=O)CC[C@H](NC(=O)CCCCCCCCCCCCCCCCC(=O)O)C(=O)O)C(=O)N[C@@H](Cc1c[nH]c2ccccc12)C(=O)N[C@@H](CC(C)C)C(=O)N[C@@H](CC(C)C)C(=O)N[C@@H](C)C(=O)N[C@@H](CCC(N)=O)C(=O)N[C@@H](CCCCN)C(=O)NCC(=O)N[C@@H](CCCCN)C(=O)N[C@@H](CCC(=O)O)C(=O)N[C@@H](CCC(=O)O)C(=O)N[C@@H](CC(=O)O)C(=O)N[C@@H](Cc1c[nH]c2ccccc12)C(=O)N[C@@H](CCCCN)C(=O)N[C@@H](Cc1c[nH]cn1)C(=O)N[C@@H](CC(N)=O)C(=O)N[C@H](C(=O)N[C@H](C(=O)N[C@@H](CCC(N)=O)C(=O)O)[C@@H](C)O)[C@@H](C)CC)C(C)C)[C@@H](C)CC [Compound 37, N{Epsilon-24}-[2-[2-[2-[[2-[2-[2-[[(4S)-4-carboxy-4-(17-carboxyheptadecanoylamino)butanoyl]amino]ethoxy]ethoxy]acetyl]amino]ethoxy]ethoxy]acetyl]-[Aib2,Nle14,Arg18,Lys24,Glu33,Glu34]-hGIP]
11.35	< 7.00	< 7.00	CCCC[C@H](NC(=O)[C@H](C)NC(=O)[C@@H](NC(=O)[C@H](CO)NC(=O)[C@H](Cc1ccc(O)cc1)NC(=O)[C@H](CC(=O)O)NC(=O)[C@H](CO)NC(=O)[C@@H](NC(=O)[C@H](Cc1ccccc1)NC(=O)[C@@H](NC(=O)CNC(=O)[C@H](CCC(=O)O)NC(=O)C(C)(C)NC(=O)[C@@H](N)Cc1ccc(O)cc1)[C@@H](C)O)[C@@H](C)CC)[C@@H](C)CC)C(=O)N[C@@H](CC(=O)O)C(=O)N[C@@H](CCCCN)C(=O)N[C@H](C(=O)N[C@@H](CCCNC(=N)N)C(=O)N[C@@H](CCC(N)=O)C(=O)N[C@@H](CCC(N)=O)C(=O)N[C@@H](CC(=O)O)C(=O)N[C@@H](Cc1ccccc1)C(=O)N[C@H](C(=O)N[C@@H](CCCCNC(=O)CC[C@H](NC(=O)CC[C@H](NC(=O)CC[C@H](NC(=O)CCCCCCCCCCCCCCCCC(=O)O)C(=O)O)C(=O)O)C(=O)O)C(=O)N[C@@H](Cc1c[nH]c2ccccc12)C(=O)N[C@@H](CC(C)C)C(=O)N[C@@H](CC(C)C)C(=O)N[C@@H](C)C(=O)N[C@@H](CCC(N)=O)C(=O)N[C@@H](CCCCN)C(=O)NCC(=O)N[C@@H](CCCCN)C(=O)N[C@@H](CCC(=O)O)C(=O)N[C@@H](CCC(=O)O)C(=O)N[C@@H](CC(=O)O)C(=O)N[C@@H](Cc1c[nH]c2ccccc12)C(=O)N[C@@H](CCCCN)C(=O)N[C@@H](Cc1c[nH]cn1)C(=O)N[C@@H](CC(N)=O)C(=O)N[C@H](C(=O)N[C@H](C(=O)N[C@@H](CCC(N)=O)C(=O)O)[C@@H](C)O)[C@@H](C)CC)C(C)C)[C@@H](C)CC [Compound 40, N{Epsilon-24}-[(4S)-4-carboxy-4-[[(4S)-4-carboxy-4-[[(4S)-4-carboxy-4-(17-carboxyheptadecanoylamino)butanoyl]amino]butanoyl]amino]butanoyl]-[Aib2,Nle14,Arg18,Lys24,Glu33,Glu34]-hGIP]
11.26	< 7.00	< 7.00	Y[Aib]EGTFISDYSIA[Nle]DKIHQQDFVK([AEEA-AEEA-γGlu-C18 diacid])WLLAQKGKEEDWKHNITQ [Compound 35, N{Epsilon-24}-[2-[2-[2-[[2-[2-[2-[[(4S)-4-carboxy-4-(17-carboxyheptadecanoylamino)butanoyl]amino]ethoxy]ethoxy]acetyl]amino]ethoxy]ethoxy]acetyl]-[Aib2,Nle14,Lys24,Glu33,Glu34]-hGIP]
